These results are taken from patent US6539252B1, “Method and apparatus for the treatment of blood borne pathogens such as immunodeficiency virus” (priority 1996, dated 2003).

The conditions of data set [1]: human blood serum; cited from earlier work.
Data set [2] in a line: calculated silver content in blood serum during treatment. The following applies: by Faraday's law. The format is in vivo, human. An excerpt: (§1) To balance the need for large numbers of silver ions with the need to keep the amount of silver within safer ranges for humans, the power supply 110 supplies two and one-half microamps of current for twelve minutes at the beginning of treatment. This produces 1.56×10(13) ions of silver per second. During the twelve minutes (i.e., seven-hundred twenty seconds) that the power supply 110 supplies two and one-half microamps of current, 0.0018 Coulombs enters the bloodstream (i.e., seven-hundred and twenty seconds multiplied by two and one-half microamps). Under Faraday's law, one mole of silver ions equals 96485 Coulombs. Further, one mole of silver ions weighs 107.87 grams. Thus, in the initial twelve minute operating period, nearly two micrograms (1.94 micrograms) of silver ions are introduced into the bloodstream.
After the initial twelve minute operating period, the low intensity direct current provided by power supply 110 is reduced to one-hundred twenty five nanoamps. This causes the production of silver ions to be produced at a rate of seven-hundred seventy-four billion ions per second. Under a preferred embodiment of the present invention, this level of electric current is maintained for a period of seventy-one hours and forty-eight minutes. […]

Data set [3] relates to eukaryotic microorganisms. The following applies: levels as low as; cited from earlier work.
In data set [4] the test system is feline immunodeficiency virus (FIV). The experiment in a line: treatment of a cat infected with feline immunodeficiency virus. The format is in vivo. The conditions noted are these: seven year old male cat with FIV; about four micrograms silver in 24 min, then one-half microgram per hour for 90 min. An excerpt: The methods of this invention have also been successfully tested on a different virus and a different host: namely, a cat infected with feline immunodeficiency virus (“FIV”). A seven year old male house cat weighing ten pounds and ten and three-quarter ounces had “heavy third eyelid”, some hair loss, eleven bite marks along his back and rump, and a wound to the top of the ear, all indicative of acute disease. The cat was anesthetized with ketamine, a catheter was placed in the neck, and the negative electrode was placed on the underchest. Approximately four micrograms of silver was delivered in twenty-four minutes, followed by one-half a microgram of silver per hour for ninety minutes.

Data set [5] deals with mammalian cells. The conditions noted are these: at less than twenty parts per billion in the blood stream; cited from earlier work.
Data set [6] concerns HIV virus. The experiment in a line: treatment of HIV infected human subjects with electrically generated silver ions; viral load by RNA PCR quantification, T4 cell count. The format is in vivo.
Source text: The present invention operates by providing a low intensity direct current to electrode 35. By placing the electrode pad 98 on the surface of the patient in the vicinity of electrode 35, the low intensity direct current will cause the electrode 35 to act as an anode, thereby releasing metal ions into the bloodstream of the patient. These positively charged metal ions are attracted to the negative polarity of the virus, thereby destabilizing it, as discussed above. […] The use of such a large blood vessel is preferred because metal ions such as the preferred silver ion have a half life of approximately seven seconds. The device as will be seen below, creates an average output of four-hundred billion silver cations per second. With an average blood volume of four liters passing by the electrode 35 approximately twice per minute, the probability of a virus passing by the electrode 35 and being bonded to a metal ion increases when the volume of blood available to carry the virus is higher.
as §1
After the initial twelve minute operating period, the low intensity direct current provided by power supply 110 is reduced to one-hundred twenty five nanoamps. This causes the production of silver ions to be produced at a rate of seven-hundred seventy-four billion ions per second. Under a preferred embodiment of the present invention, this level of electric current is maintained for a period of seventy-one hours and forty-eight minutes. During this time (i.e., 258,480 seconds) that the power supply 110 supplies one-hundred twenty-five nanoamps of current, […] enters the bloodstream (i.e., 258,480 seconds multiplied by one-hundred twenty-five nanoamps). Under Faraday's law, one mole of silver ions equals 96485 Coulombs. Further, one mole of silver ions weighs 107.87 grams. Thus, during this entire period, only approximately 36.1 micrograms of silver ions are introduced into the bloodstream. Thus, in the entire seventy-two hour treatment, only 38.1 micrograms of silver have been introduced into the patient's bloodstream.
In a first example, the human patient had 2,165,823 copies of the HIV virus per milliliter of blood by the RNA PCR quantification test method. In addition, this patient's T4 cell (Helper) count was at 18. This particular subject was experiencing serious kidney malfunction prior to treatment. Twenty-four hours after treatment, this patient's viral load was reduced to 1,336,817 copies of the HIV virus per milliliter of blood while the T4 cell count was 11. Because of this patient's kidney malfunction, it was suspected that most of the viral copies detected during the RNA PCR quantization test had been denatured but had not yet been removed from the patient by the kidneys. Thus, one month after treatment, the viral load was measured again and found to be reduced to 621,215 copies of the HIV virus per milliliter of blood.
Thus, the electrode 35 was placed in the subclavian vein. This patient was subjected to twelve minutes of treatment at 2.5 microamps and then only forty-seven hours and forty-eight minutes of treatment at one-hundred twenty-five nanoamps. […]

Data set [7] has as its system bacterial pathogens. The conditions noted are these: silver ions generated in small quantities in the blood stream; cited from earlier work.

`[Ag+]` [silver ions]: in data set [1], the “silver in the blood serum humans can withstand without a toxic reaction” value is recorded as “thirty to eighty”. Also, the “silver content in the blood serum” value is recorded as “less than nine” in data set [2] (entire seventy-two hour treatment (38.1 micrograms silver)); “less than five” in data set [2] (initial twelve minutes at two and one-half microamps (1.94 micrograms silver)). Moreover, in data set [3], the “level toxic to eukaryotic microorganisms” value was “one to five”. The “clinical outcome the next morning” value in data set [4] was “returned to normal activity and appetite”. The “toxicity to mammalian cells” value in data set [5] is on record as “totally nontoxic”. Besides, the “clinical outcome after treatment” value in data set [6] (first human patient) is “immediately felt improved health, was able to eat solid food, and experienced a dramatic increase in quality of life”; in data set [6] (second human subject), “immediately felt improved health and was able to eat solid food”; in data set [6] (third human subject, also on AZT), “immediately felt improved health, was able to eat solid food, and experienced a dramatic increase in quality of life”. For the same compound, the viral load was 1,336,817 copies of the HIV virus per milliliter of blood in data set [6] (first human patient, kidney malfunction, baseline 2,165,823, twenty-four hours after treatment, RNA PCR); 621,215 copies of the HIV virus per milliliter of blood in data set [6] (first human patient, baseline 2,165,823, one month after treatment); 394,972 copies of the HIV virus per milliliter of blood in data set [6] (second human subject, electrode in subclavian vein, 12 min at 2.5 microamps then 47 h 48 min at 125 nanoamps, baseline 1,814,466, forty-eight hours after treatment, RNA PCR); 634 copies of the HIV virus per milliliter of blood in data set [6] (third human subject, also undergoing treatment with AZT, 12 min at 2.5 microamps then 70 h 18 min at 125 nanoamps, baseline 693,832, twenty-four hours after treatment, RNA PCR). For the same compound, the T4 cell count in data set [6] (first human patient, baseline 18, twenty-four hours after treatment) worked out at 11; in data set [6] (second human subject, baseline 17, forty-eight hours after treatment) it was 18; in data set [6] (third human subject, also on AZT, baseline 5, twenty-four hours after treatment), 6. Also, the “quantity in the blood stream effective in destroying bacterial pathogens” value in data set [7] was “less than twenty”.
